Read-outs that look alike come from different tables or passages of the source.
Columns and labels:
PLK1 kinase domain = target: T1, PLK1 kinase domain (Homo sapiens, UniProt P53350); assay: Assay for Inhibition of PLK1 (SPA, 33P-ATP, His-tagged PLK kinase domain); assay type: biochemical; conditions: 2 nM PLK1 kinase domain, 1 μM ATP, 1.25 hrs at 22° C.; for IC50: read-out: Average pIC50 PLK Enzyme Inhibition (converted)
T1 construct: made in house; host or cells: baculovirus infected T. ni cells
T1 sequence (P53350 21-346): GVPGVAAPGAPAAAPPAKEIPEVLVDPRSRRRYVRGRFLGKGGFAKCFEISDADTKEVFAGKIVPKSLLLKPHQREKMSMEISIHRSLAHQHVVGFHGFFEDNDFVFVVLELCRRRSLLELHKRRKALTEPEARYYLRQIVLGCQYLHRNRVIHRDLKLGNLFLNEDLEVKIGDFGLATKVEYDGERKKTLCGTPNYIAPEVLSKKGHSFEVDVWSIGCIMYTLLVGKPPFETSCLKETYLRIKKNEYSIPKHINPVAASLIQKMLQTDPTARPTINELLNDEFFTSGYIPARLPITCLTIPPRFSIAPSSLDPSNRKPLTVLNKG
Method: I. Assay for Inhibition of PLK1
A. Preparation of 6× N-terminal His-tagged PLK kinase domain 6× N-terminal His-tagged PLK kinase domain (amino acids 21-346 preceded by MKKGHHHHHHD (SEQ ID:NO. 1) may be prepared from baculovirus infected T. ni cells under polyhedrin promoter control. All subsequent procedures are performed at 4° C. Cells are lysed in 25 mM HEPES, 200 mM NaCl, 25 mM imidazole; pH 8.0. The homogenate is centrifuged at 14K rpm in a SLA-1500 rotor for 40 min and the supernatant filtered through a 1.2 micron filter. The supernatant is loaded onto a Nickel chelating Sepharose (Amersham Pharmacia) column and washed with 25 mM HEPES, 500 mM NaCl, 25 mM imidazole; pH 8.0. The column is then washed with a 16.6% B step where buffer B is 25 mM HEPES, 500 mM NaCl, 300 mM imidazole; pH 8.0. Protein is eluted using a 10-column volume linear gradient from 16.6% B to 100% B. Fractions were pooled using absorbance at 280 nm. PLK is concentrated using a 10 kDa molecular weight cutoff membrane and then loaded onto a Superdex 75 gel filtration (Amersham Pharmacia) column equilibrated in 25 mM HEPES, 1 mM DTT, 500 mM NaCl; pH 8.0. Protein was pooled by absorbance at 280 nm and then quality controlled using mass spectrometry and SDS-PAGE. PLK was aliquoted and stored at −80° C.
B. Enzyme activity +/− inhibitors was determined as follows: Compounds are added to the plate (1 μl in 100% DMSO). DMSO (5% final) and EDTA (62.5 mM final in 20 μL reaction) are used as controls. Reaction Mix is prepared as follows at 22° C.: • 25 mM HEPES, pH 7.2 • 15 mM MgCl2 • 1 μM ATP • 0.05 μCi/well ^33P-γ ATP (10 Ci/mMol) • 1 μM substrate peptide (Biotin-Ahx-SFNDTLDFD) SEQ ID:No. 2. • 0.15 mg/ml BSA • 1 mM DTT • 2 nM PLK1 kinase domain (added last)
Reaction Mix (20 μl) is added per well to each well immediately upon addition of enzyme and incubated 1.25 hrs. at 22° C. The enzymatic reactions are stopped with 50 μl of SPA bead/EDTA mix (50 mM EDTA, 4.0 mg/ml Streptavidin-coated SPA beads in Standard Dulbecco's PBS (without Mg^2+ and Ca^2+), 50 μM ATP). Plates are sealed with clear plastic seals, spun at 500×g for 1 min. or settled overnight, and plates counted in Packard TopCount for 30 seconds/well.
In Table 1, +=pIC50<5; ++=pIC50 5-7; +++=pIC50>7.

[1] = tested on: H460 lung tumor cell line; assay: Methylene Blue Growth Inhibition Assay, H460; assay type: cell-based, human; conditions: H460, 3 days, read-out: MeB Cell Line IC50
Method: (§1) II. Methylene Blue Growth Inhibition Assay
(§2) Normal Human foreskin fibroblasts (HFF) and human colon (HCT116, RKO), lung (H460), prostate (PC3), and breast tumor (MCF7) cell lines are cultured in high glucose DMEM (Life Technologies) containing 10% fetal bovine serum (FBS) at 37° C. in a humidified 10% CO2, 90% air incubator. Cells are harvested using trypsin/EDTA, counted using a haemocytometer, and plated in 100 μl of the appropriate media, at the following densities, in a 96-well tissue culture plate (Falcon 3075): HFF 5,000 cells/well, HCT116 3,000 cells/well, RKO 2,500 cells/well, H460 2,000 cells/well, PC3 8,000 cells/well, MCF7 4,000 cells/well. The next day, compounds are diluted in DMEM containing 100 μg/ml gentamicin, at twice the final required concentration, from 10 mM stock solutions in DMSO. 100 μl/well of these dilutions are added to the 100 μl of media currently on the cell plates. Medium containing 0.6% DMSO is added to control wells. Compounds diluted in DMEM are added to all cell lines. The final concentration of DMSO in all wells is 0.3%. Cells are incubated at 37° C., 10% CO2 for 3 days. Medium is removed by aspiration. Cell biomass is estimated by staining cells with 80 μl per well methylene blue (Sigma M9140, 0.5% in 50:50 ethanol:water), and incubation at room temperature for at least 30 minutes. Stain is removed, and the plates rinsed by immersion in water, and air-dried. To release stain from the cells 100 μl of solubilization solution is added (1% N-lauroyl sarcosine, Sodium salt, Sigma L5125, in PBS), and plates are left at room temperature for about 30 minutes. Optical density at 620 nm is measured on a microplate reader. Percent inhibition of cell growth is calculated relative to vehicle treated control wells. Concentration of compound that inhibits 50% of cell growth (IC50) is interpolated using nonlinear regression (Levenberg-Marquardt) and the equation, y=Vmax*(1−(x/(K+x)))+Y2, where Y2=0 and “K” is equal to the IC50.
(§3) In Table 1, +=10−>30 μM; ++=1-10 μM: +++=<1 μM.

[2] = tested on: HCT116 colon tumor cell line; assay: Methylene Blue Growth Inhibition Assay, HCT116; assay type: cell-based, human; conditions: HCT116, 3 days, read-out: MeB Cell Line IC50
Method: as §1, §2, §3

[3] = tested on: Normal Human foreskin fibroblasts (HFF); assay: Methylene Blue Growth Inhibition Assay, HFF; assay type: cell-based; conditions: 3 days, read-out: MeB Cell Line IC50
Method: as §1, §2, §3

[4] = tested on: MCF7 breast tumor cell line; assay: Methylene Blue Growth Inhibition Assay, MCF7; assay type: cell-based, human; conditions: MCF7, 3 days, read-out: MeB Cell Line IC50
Method: as §1, §2, §3

[5] = tested on: PC3 prostate tumor cell line; assay: Methylene Blue Growth Inhibition Assay, PC3; assay type: cell-based, human; conditions: PC3, 3 days, read-out: MeB Cell Line IC50
Method: as §1, §2, §3

[6] = tested on: RKO colon tumor cell line; assay: Methylene Blue Growth Inhibition Assay, RKO; assay type: cell-based, human; conditions: 3 days, read-out: MeB Cell Line IC50
Method: as §1, §2, §3

Row | Molecule | IC50 (PLK1 kinase domain) [µM] | IC50 ([1]; Homo sapiens, NCI-H460, 72 h) [µM] | IC50 ([2]; Homo sapiens, HCT-116, 72 h) [µM] | IC50 ([4]; Homo sapiens, 72 h) [µM] | IC50 ([5]; Homo sapiens, 72 h) [µM] | IC50 ([6]; Homo sapiens, 72 h) [µM] | Average pIC50 PLK Enzyme Inhibition (PLK1 kinase domain) | IC50 [1] [µM] | IC50 [2] [µM] | IC50 [4] [µM] | IC50 [5] [µM] | IC50 [6] [µM] | IC50 ([3]; Homo sapiens, 72 h) [µM] | IC50 [3] [µM]
1 | NC(=O)c1sc(-n2cnc3ccc(F)cc32)nc1OCc1ccccc1C(F)(F)F [Example 4, 2-(6-Fluoro-1H-benzimidazol-1-yl)-4-({[2-(trifluoromethyl)phenyl]methyl}oxy)-1,3-thiazole-5-carboxamide] | 0.1 to 10 | > 10 | > 10 | > 10 | > 10 | > 10 |  |  |  |  |  |  | > 10 | 
2 | COc1cc2ncn(-c3nc(OCc4ccccc4C(F)(F)F)c(C(N)=O)s3)c2cc1OC [Example 6, 2-[5,6-Bis(methyloxy)-1H-benzimidazol-1-yl]-4-({[2-(trifluoromethyl)phenyl]-methyl}oxy)-1,3-thiazole-5-carboxamide] | < 0.1 | 1 to 10 | 1 to 10 | 1 to 10 | 1 to 10 | 1 to 10 |  |  |  |  |  |  | > 10 | 
3 | Cc1cc2ncn(-c3nc(OCc4ccccc4C(F)(F)F)c(C(N)=O)s3)c2cc1C [Example 5, 2-(5,6-Dimethyl-1H-benzimidazol-1-yl)-4-({[2-(trifluoromethyl)phenyl]methyl}oxy)-1,3-thiazole-5-carboxamide] | 0.1 to 10 | > 10 | > 10 | > 10 | > 10 | > 10 |  |  |  |  |  |  | > 10 | 
4 | NC(=O)c1sc(-n2cnc3ccccc32)nc1OCc1ccccc1C(F)(F)F [Example 1, 2-(1H-Benzimidazol-1-yl)-4-({[2-(trifluoromethyl)phenyl]methyl}-oxy)-1,3-thiazole-5-carboxamide] | < 0.1 | > 10 | > 10 | > 10 | > 10 | > 10 |  |  |  |  |  |  | > 10 | 
5 | 2-(6-Methoxy-1H-benzimidazol-1-yl)-4-({[2-(trifluoromethyl)phenyl]methyl}oxy)-1,3-thiazole-5-carboxamide and 2-(5-methoxy-1H-benzimidazol-1-yl)-4-({[2-(trifluoromethyl)phenyl]methyl}oxy)-1,3-thiazole-5-carboxamide [Example 3] |  |  |  |  |  |  | +++ (+++=pIC50>7) | > 10 | > 10 | > 10 | > 10 | > 10 |  | > 10

Further lines, with some results ahead:

Row | IC50 (PLK1 kinase domain) [µM] | IC50 ([1]; Homo sapiens, NCI-H460, 72 h) [µM] | IC50 ([2]; Homo sapiens, HCT-116, 72 h) [µM] | IC50 ([4]; Homo sapiens, 72 h) [µM] | IC50 ([5]; Homo sapiens, 72 h) [µM] | IC50 ([6]; Homo sapiens, 72 h) [µM] | Average pIC50 PLK Enzyme Inhibition (PLK1 kinase domain) | IC50 [1] [µM] | IC50 [2] [µM] | IC50 [4] [µM] | IC50 [5] [µM] | IC50 [6] [µM] | Molecule | IC50 ([3]; Homo sapiens, 72 h) [µM] | IC50 [3] [µM]
6 | < 0.1 | > 10 | > 10 | 1 to 10 | > 10 | 1 to 10 |  |  |  |  |  |  | NC(=O)c1sc(-n2cnc3ccc(Cl)cc32)nc1OCc1ccccc1C(F)(F)F [Example 2A, 2-(6-Chloro-1H-benzimidazol-1-yl)-4-({[2-(trifluoromethyl)phenyl]methyl}oxy)-1,3-thiazole-5-carboxamide] | > 10 | 
7 | 0.1 to 10 | > 10 | > 10 | > 10 | > 10 | > 10 |  |  |  |  |  |  | NC(=O)c1sc(-n2cnc3cc(Cl)ccc32)nc1OCc1ccccc1C(F)(F)F [Example 2B, 2-(5-chloro-1H-benzimidazol-1-yl)-4-({[2-(trifluoromethyl)phenyl]methyl}oxy)-1,3-thiazole-5-carboxamide] | > 10 | 

Reference: patent publication US7560568B2, “Thiazole compounds” (SmithKline Beecham Corporation, priority 2004, dated 2009)
